We go through 7 compounds from patent US9359487B2, “Plasticizers based on mixed esters of succinate” (Proviron Holding N.V., priority 2012, dated 2016).

The structures appear in SMILES notation.

Format in all cases: physicochemical
The nature of data set [1]: Volatility comparison of succinate and adipate ester (tests by the inventors). To be noted: versus comparable adipate ester DEHA.
The nature of data set [2]: Weight loss test (volatility) of transparent plastisole PVC film at 100° C. To be noted: for Volatile: Weight difference @ 100° C. After 4 days (%) / Volatile: Weight difference @ 100° C. After 7 days (%): transparent PVC film, 50 phr plasticiser; for delta vs. ref. (weight difference after 4 days) / delta vs. ref. (weight difference after 7 days): versus DINP. The protocol: Their plasticising behaviour is compared in a plastisole based transparent PVC film.
(flooring type, top layer): Solvin 382NG 100 phr (obtainable from Solvay S.A., Belgium), plasticiser 50 phr, Ca/Zn stabiliser (Baerostab NT 306) 2.5 phr (obtainable from the company Baerlocher).
The transparent film so formed is subjected to amongst others a weight loss test (volatility) at 100° C. for respectively 4 and 7 days. The plasticiser efficiency is determined by means of a hardness measurement. A measure for the compatibility of the plasticiser is the transparency.

Data set [3] is described as follows: Extraction of plasticiser in water from plastisole samples. To be noted: plastisol, 50 phr plasticizer; for Extractions by H2O (Weight Difference %) 1 d: after 1 day; for Extractions by H2O (Weight Difference %) 7 d: after 7 days; for Extractions by H2O (Weight Difference %) dry: after drying the sample. The protocol:
Various plastisoles were prepared on the basis of various plasticisers set forth in Table 1, according to the following formulae:
100 phr PVC (Vestolit B7021 ultra), 50 phr Plasticiser (Table 1), 3 phr ESBO (Drapex 39) (acting as anti-oxydans), 2 phr Ca/Zn stabiliser (Mark CZ 149).
Apart from the above, the viscosity property of the plastisole solution was determined after 24 h (viscosity vs. Shear) and the thickening was determined. Apart from this the extraction of the plasticiser in water (expressed as % weight gain/weight loss) after 1 day, 7 days were determined, as well as after drying the sample.

Data set [4] in a line: Volatility of pure plasticiser by thermal-gravimetrical analysis. To be noted: 200° C./10 min, pure compound.

In the case of `CCCCC(CC)COC(=O)CCC(=O)OCC(CC)CCCC` (centres unmarked) [DEHSu, di-2-ethylhexyl-succinate], the “volatility compared to di-2-ethylhexyl-adipate (DEHA)” value in data set [1] is “approximately twice as volatile”.

As for `CC(C)CCCCCCOC(=O)c1ccccc1C(=O)OCCCCCCC(C)C` [DINP, Di-isononylphthalate], in data set [2], the “Volatile: Weight difference @ 100° C. After 4 days (%)” value was −2.30% and the “Volatile: Weight difference @ 100° C. After 7 days (%)” value is on record as −4.00%. Besides, in data set [3], the “Extractions by H2O (Weight Difference %) 1 d” value worked out at 0.8%, the “Extractions by H2O (Weight Difference %) 7 d” value stood at 1.8% and the “Extractions by H2O (Weight Difference %) dry” value is reported as 0.7%. The “Volatily plasticizer (weightloss [m %])” value in data set [4] was −4.3 m %.

`CC(C)CCCCCCOC(=O)CCC(=O)OCCCCCCC(C)C` [DINS, diisononylsuccinate]: in data set [2], the “Volatile: Weight difference @ 100° C. After 7 days (%)” value was −24.50%, the “delta vs. ref. (weight difference after 4 days)” value was “×7.6” and the “delta vs. ref. (weight difference after 7 days)” value is “×6.1”.

Take `CCCCC(CC)COC(=O)CCCCC(=O)OCC(CC)CCCC` (centres unmarked) [DOA, Di-octyladepate]: in data set [3], the “Extractions by H2O (Weight Difference %) 1 d” value was determined as 1%, the “Extractions by H2O (Weight Difference %) 7 d” value came to 2.1% and the “Extractions by H2O (Weight Difference %) dry” value turned out to be 0.7%. Also, the “Volatily plasticizer (weightloss [m %])” value in data set [4] was −18.4 m %.

Consider `CCCCC(CC)COC(=O)c1ccc(C(=O)OCC(CC)CCCC)cc1` (centres unmarked) [DOTP, Di-octyltherephthalate], for which, in data set [3], the “Extractions by H2O (Weight Difference %) 1 d” value is given as 0.8%, the “Extractions by H2O (Weight Difference %) 7 d” value came out at 1.7% and the “Extractions by H2O (Weight Difference %) dry” value was 0.7%. In data set [4], the “Volatily plasticizer (weightloss [m %])” value is −4.8 m %.

On to `CCCCCC(CCC)COC(=O)CCC(=O)OCC(CCC)CCCCC` (centres unmarked) [DPHS, di-(2-propylheptyl)succinate], for which, in data set [2], the “Volatile: Weight difference @ 100° C. After 4 days (%)” value is recorded as −11.50%, the “Volatile: Weight difference @ 100° C. After 7 days (%)” value is given as −17.60%, the “delta vs. ref. (weight difference after 4 days)” value was “×5.0” and the “delta vs. ref. (weight difference after 7 days)” value was “×4.4”.

`CC(C)CCCCCCOC(=O)c1ccccc1` [INB, Isononyl Benzoate]: in data set [3], the “Extractions by H2O (Weight Difference %) 1 d” value is reported as 0.9%, the “Extractions by H2O (Weight Difference %) 7 d” value is on record as 1.9% and the “Extractions by H2O (Weight Difference %) dry” value is 0.5%. For the same compound, the “Volatily plasticizer (weightloss [m %])” value in data set [4] is −61.7 m %.
